Assay results reported in patent US7094581B2, “Hyaluronan synthases and methods of making and using same” (The Board of Regents of the University of Oklahoma, priority 1998, dated 2006).

System: triple Cys-mutants of seHAS
Test: NEM inactivation of triple Cys-mutants of seHAS and protection by substrates
Type: biochemical, Streptococcus equisimilis
Details: 5 mM NEM, 4° C., 10 min
Protocol: FIG. 6. Substrates protect triple Cys-mutants of seHAS from inactivation by NEM. E. coli membranes containing the indicated triple Cys-mutant of seHAS (each with a single remaining Cys residue) were treated at 4° C. for 10 min with no additions (control; 100% values) or with 5 mM NEM alone and in the presence of either UDP, UDP-GIcUA or UDP-GIcNAc. Unreacted Nem was then quenched and HAS activity was determined. Results are not shown for the mutant containing only Cys^367, since NEM inactivation of this mutant is ˜10% and all values were essentially identical.
Although the 4 Cys residues in seHAS (positions 226, 262, 281 and 367) are roughly conserved in all Class I HAS family members, the Cys-null mutants of seHAs and spHAS are active, with minimal changes in their kinetics compared to wild type. It is also shown here that neither HAS contains disulfide bonds. To understand why these four cysteines are, nevertheless, largely conserved within the Class I HASs, NEM sensitivity was examined (i.e., the time- and dose-dependent inhibition) of all possible Cys-to-Ala mutants of seHAS. […] Cys281 appears not to be within a UDP-sugar binding site, since the triple Cys-mutant seHAS (A3C)C281 was not protected from NEM inhibition by UDP, UDP-GIcUA or UDP-GIcNAc (FIG. 6).
Stock solutions (10–100 mM) of NEM, IAA or other sulfhydryl reagents were made in PBS, pH 7.0. […]

Compound: CCN1C(=O)C=CC1=O [N-ethylmaleimide]
- NEM inactivation of the seHAS mutant containing only Cys^367: ~10%
